# Values quoted from earlier work as cited in paper PMC7395068, “The evolution of strategies to minimise the risk of human drug-induced liver injury (DILI) in drug discovery and development” (Archives of Toxicology, 2020).
# Like-named read-outs stand apart in the source and are kept apart here.
# Columns and labels:
# [1] = cited from earlier work
# [2] = cited from earlier work; remark: listed apart in the source
# [3] = test system: THLE or HepG2 cells, isolated mitochondria, BSEP; settings: cited from earlier work
# [4] = test system: PHH spheroids; settings: In vitro Assay; ref Vorrink 2018; cited from earlier work
# [5] = test system: THLE-Null and THLE-3A4 cells; settings: In vitro Assay; ref Gustafsson 2014; cited from earlier work
# [6] = test system: rBsep; settings: In vitro Assay; ref Dawson 2012; cited from earlier work
# [7] = test system: PHH; settings: In vitro Assay; ref Proctor 2017; cited from earlier work
# [8] = test system: HepG2 cells, primary human hepatocytes; settings: cited from earlier work
# [9] = test system: HepG2 C3A spheroid, BSEP, Glu/Gal in HepG2 cells, bioactivation; settings: cited from earlier work
# [10] = test system: primary human hepatocytes, NIH3T3 fibroblasts, BSEP, CYP3A4; settings: cited from earlier work
# [11] = test system: hLiMTs; settings: In vitro Assay; ref Proctor 2017; cited from earlier work
# [12] = cited from earlier work; remark: listed apart in the source
# [13] = test system: human hepatocytes; settings: cited from earlier work
# [14] = LTKB DILIrank category, ref Chen 2016
# [15] = FDA drug labelling score, ref Chen 2011
# [16] = binary DILI call, ref Chen 2016
# [17] = In vitro Assay, ref Garside 2014
# [18] = In vitro Assay, ref Williams 2019
# [19] = In vitro Assay, ref Schadt 2015
# [20] = binary in vivo human DILI call, ref Chen 2016
# [21] = human DILI, LTKB DILIrank category, ref Chen 2016
# [22] = FDA drug labelling score, scale 1-8, ref Chen 2011
# [23] = binary in vivo DILI call given beside the severity category, ref Chen 2016
# [24] = human DILI concern category (LTKB DILIrank), ref Chen 2016
# [25] = score by FDA drug labelling, scale 1-8, ref Chen 2011
smiles,measurement,setting,value
Nc1nc(NC2CC2)c2ncn([C@H]3C=C[C@@H](CO)C3)c2n1 [abacavir],DILI severity category,[1]; [14],vMost-DILI-Concern
same,DILI Score (FDA) (1-8),[2]; [15],8
C[C@H]1O[C@H](O[C@H]2[C@H](O)[C@@H](O)[C@@H](O[C@H]3[C@H](O)[C@@H](O)C(O)O[C@@H]3CO)O[C@@H]2CO)[C@H](O)[C@@H](O)[C@@H]1N[C@H]1C=C(CO)[C@@H](O)[C@H](O)[C@H]1O (some centres unmarked) [acarbose],"DILI +VE (5-8), DILI -VE (-4)",[1]; in vivo,+VE
same,DILI severity category,[1]; in vivo,vMost-DILI-Concern
same,DILI Score (FDA) (1-8),[2]; in vivo,5
CN(C)c1nc(N(C)C)nc(N(C)C)n1 [altretamine],DILI severity category,[1]; [14],Ambiguous DILI-concern
same,"DILI +VE (5-8), DILI -VE (-4)",[1]; [16],-VE
same,DILI Score (FDA) (1-8),[2]; [15],2
CC(C(=O)O)c1ccc2oc(-c3ccc(Cl)cc3)nc2c1 (centres unmarked) [benoxaprofen],Partition Hybrid HRM Score,"[3]; In vitro Assay, ref Aleo 2019",+VE
same,Ro2 Hybrid HRM Score,"[3]; In vitro Assay, ref Aleo 2019",+VE
same,hLiMTs ATP <20 x Cmax,[4],-VE
same,THLE-Null,[5],-VE
same,THLE-Null/3A4,[5],-VE
same,Inhibition of rBsep cutoff<1& cmax u>.2,[6],+VE
same,Inhibition of rBsep cutoff<3,[6],+VE
same,PHH ATP <100uM,[7],-VE
same,Cluster 1-6 +VE Assay,[8]; [17],+VE
same,"DILI +VE (5-8), DILI -VE (-4)",[1]; ref Chen 2016,+VE
same,DILI severity category,[1]; ref Chen 2016,vMost-DILI-Concern
same,Bayesian Machine Learning,[9]; [18],+VE
same,Cellular toxicity (3T3 cells),[10]; [19],-VE
same,Combined Assay,[10]; [19],+VE
same,GSH adduct HML,[10]; [19],-VE
same,Hepatocyte cellular toxicity,[10]; [19],-VE
same,MitoTox 3T3,[10]; [19],-VE
same,TDI CYP3A4,[10]; [19],-VE
same,hBSEP inhibition,[10]; [19],-VE
same,hLiMTs ATP <100uM,[11],-VE
same,In vivo DILI,[12]; ref Aleo 2019,+VE
same,In vivo DILI,[12]; ref Dawson 2012,+VE
same,In vivo DILI,[12]; ref Garside 2014,+VE
same,In vivo DILI,[12]; ref Gustafsson 2014,+VE
same,In vivo DILI,[12]; ref Proctor 2017,+VE
same,In vivo DILI,[12]; ref Schadt 2015,+VE
same,In vivo DILI,[12]; ref Vorrink 2018,+VE
same,In vivo DILI,[12]; ref Williams 2019,+VE
CC(C)NCC(O)COc1ccc(COCCOC(C)C)cc1 (centres unmarked) [bisoprolol],DILI severity category,[1]; [14],Ambiguous DILI-concern
same,"DILI +VE (5-8), DILI -VE (-4)",[1]; [16],-VE
same,DILI Score (FDA) (1-8),[2]; [15],3
Cc1ccc(-c2cc(C(F)(F)F)nn2-c2ccc(S(N)(=O)=O)cc2)cc1 [celecoxib],hLiMTs ATP <20 x Cmax,[4],+VE (IC20 < 20 × Cmax.tot cut-off)
same,THLE-Null,[5],+VE
same,PHH ATP <100uM,[7],+VE (IC50 threshold of 100 µM)
same,Cluster 1-6 +VE Assay,[8]; [17],+VE
same,"DILI +VE (5-8), DILI -VE (-4)",[1]; ref Chen 2016,+VE
same,DILI severity category,[1]; ref Chen 2016,vLess-DILI-Concern
same,Bayesian Machine Learning,[9]; [18],+VE
same,Cellular toxicity (3T3 cells),[10]; [19],+VE
same,GSH adduct HML,[10]; [19],-VE
same,Hepatocyte cellular toxicity,[10]; [19],-VE
same,MitoTox 3T3,[10]; [19],-VE
same,TDI CYP3A4,[10]; [19],-VE
same,hBSEP inhibition,[10]; [19],-VE
same,hLiMTs ATP <100uM,[11],+VE (IC50 threshold of 100 µM)
same,In vivo DILI,[12]; ref Garside 2014,+VE
same,In vivo DILI,[12]; ref Gustafsson 2014,+VE
same,In vivo DILI,[12]; ref Proctor 2017,+VE
same,In vivo DILI,[12]; ref Schadt 2015,+VE
same,In vivo DILI,[12]; ref Vorrink 2018,+VE
same,In vivo DILI,[12]; ref Williams 2019,+VE
Nc1ccn([C@@H]2O[C@H](CO)[C@@H](O)[C@@H]2O)c(=O)n1 [cytarabine],"DILI +VE (5-8), DILI -VE (-4)",[1]; in vivo,+VE
same,DILI severity category,[1]; in vivo,vMost-DILI-Concern
same,DILI Score (FDA) (1-8),[2]; in vivo,3
same,In vivo DILI,[12]; in vivo,+VE
O=C(O)c1ccc(-n2nc(-c3ccccc3O)nc2-c2ccccc2O)cc1 [deferasirox],"DILI +VE (5-8), DILI -VE (-4)",[1]; [20],+VE
same,DILI severity category,[1]; [21],vMost-DILI-Concern
same,DILI Score (FDA) (1-8),[2]; [22],7
CC(=O)O[C@@]12CO[C@@H]1C[C@H](O)[C@@]1(C)C(=O)[C@H](O)C3=C(C)[C@@H](OC(=O)[C@H](O)[C@@H](NC(=O)OC(C)(C)C)c4ccccc4)C[C@@](O)([C@@H](OC(=O)c4ccccc4)[C@H]21)C3(C)C [docetaxel],"DILI +VE (5-8), DILI -VE (-4)",[1]; [20],+VE
same,DILI severity category,[1]; [21],vLess-DILI-Concern
same,DILI Score (FDA) (1-8),[2]; [22],8
O=C(O)Cc1csc(-c2ccc(Cl)cc2)n1 [fenclozic acid],THLE-Null,[5],-VE
same,THLE-Null/3A4,[5],-VE
same,Inhibition of rBsep cutoff<1& cmax u>.2,[6],-VE
same,Inhibition of rBsep cutoff<3,[6],-VE
same,Cluster 1-6 +VE Assay,[8]; [17],+VE
same,"DILI +VE (5-8), DILI -VE (-4)",[1]; ref Chen 2016,+VE
same,DILI severity category,[1]; ref Chen 2016,vMost-DILI-Concern
same,Bayesian Machine Learning,[9]; [18],+VE
same,In vivo DILI,[12]; ref Dawson 2012,+VE
same,In vivo DILI,[12]; ref Garside 2014,+VE
same,In vivo DILI,[12]; ref Gustafsson 2014,+VE
same,In vivo DILI,[12]; ref Williams 2019,+VE
Nc1nc(O)c2ncn(COC(CO)CO)c2n1 [ganciclovir],DILI severity category,[1]; [14],Ambiguous DILI-concern
same,"DILI +VE (5-8), DILI -VE (-4)",[1]; [16],-VE
same,DILI Score (FDA) (1-8),[2]; [15],7
C[C@]12COC(=O)C[C@@H]1CC[C@@H]1[C@@H]2CC[C@@]2(C)[C@H]1CC[C@]2(C)O [oxandrolone],"DILI +VE (5-8), DILI -VE (-4)",[1]; [23],+VE
same,DILI severity category,[1]; [24],vMost-DILI-Concern
same,DILI Score (FDA) (1-8),[2]; [25],8
CN(C)[C@@H]1C(O)=C(C(N)=O)C(=O)[C@@]2(O)C(O)=C3C(=O)c4c(O)cccc4[C@@](C)(O)[C@H]3[C@H](O)[C@@H]12 [oxytetracycline],"DILI +VE (5-8), DILI -VE (-4)",[1]; [23],-VE
same,DILI severity category,[1]; [24],Ambiguous DILI-concern
same,DILI Score (FDA) (1-8),[2]; [25],2
CC(C)(S)[C@@H](N)C(=O)O [penicillamine],"DILI +VE (5-8), DILI -VE (-4)",[1]; [23],+VE
same,DILI severity category,[1]; [24],vLess-DILI-Concern
same,DILI Score (FDA) (1-8),[2]; [25],3
C[C@]12C=CC(=O)C=C1CC[C@@H]1[C@@H]2[C@@H](O)C[C@@]2(C)[C@H]1CC[C@]2(O)C(=O)CO [prednisolone],"DILI +VE (5-8), DILI -VE (-4)",[1]; in vivo,+VE
same,DILI severity category,[1]; in vivo,vLess-DILI-Concern
same,DILI Score (FDA) (1-8),[2]; in vivo,3
same,In vivo DILI,[12]; in vivo,-VE
CC(C(=O)O)c1ccc(C(=O)c2cccs2)cc1 (centres unmarked) [suprofen],THLE-Null,[5],-VE
same,THLE-Null/3A4,[5],-VE
same,Cluster 1-6 +VE Assay,[8]; [17],-VE
same,Bayesian Machine Learning,[9]; ref Williams 2019,+VE
same,In vivo DILI,[12]; ref Garside 2014,+VE
same,In vivo DILI,[12]; ref Gustafsson 2014,+VE
same,In vivo DILI,[12]; ref Williams 2019,+VE
C[C@H](Cn1cnc2c(N)ncnc21)OCP(=O)(O)O [tenofovir],"DILI +VE (5-8), DILI -VE (-4)",[1]; [23],+VE
same,DILI severity category,[1]; [24],vLess-DILI-Concern
same,DILI Score (FDA) (1-8),[2]; [25],8
O=C(O)COc1ccc(C(=O)c2cccs2)c(Cl)c1Cl [tienilic acid],PHH ATP <100uM,[7],-VE
same,Cluster 1-6 +VE Assay,[8]; [17],+VE
same,"DILI +VE (5-8), DILI -VE (-4)",[1]; ref Chen 2016,+VE
same,DILI severity category,[1]; ref Chen 2016,vMost-DILI-Concern
same,Bayesian Machine Learning,[9]; [18],+VE
same,hLiMTs ATP <100uM,[11],-VE
same,In vivo DILI,[12]; […],+VE
same,In vivo DILI,[12]; ref Garside 2014,+VE
same,In vivo DILI,[12]; ref Proctor 2017,+VE
same,In vivo DILI,[12]; ref Williams 2019,+VE
Cc1ccc(C(=O)c2ccc(CC(=O)O)n2C)cc1 [tolmetin],THLE-Null,[5],-VE
same,THLE-Null/3A4,[5],-VE
same,Cluster 1-6 +VE Assay,[8]; [17],+VE
same,"DILI +VE (5-8), DILI -VE (-4)",[1]; ref Chen 2016,+VE
same,DILI severity category,[1]; ref Chen 2016,vLess-DILI-Concern
same,Structural based (HCI),"[13]; In vitro Assay, ref Xu 2008",+VE
same,Bayesian Machine Learning,[9]; [18],+VE
same,In vivo DILI,[12]; ref Garside 2014,+VE
same,In vivo DILI,[12]; ref Gustafsson 2014,+VE
same,In vivo DILI,[12]; ref Williams 2019,+VE
same,In vivo DILI,[12]; ref Xu 2008,+VE
CN(C)CCOc1ccc(/C(=C(/CCCl)c2ccccc2)c2ccccc2)cc1 [toremifene],"DILI +VE (5-8), DILI -VE (-4)",[1]; [23],-VE
same,DILI severity category,[1]; [24],Ambiguous DILI-concern
same,DILI Score (FDA) (1-8),[2]; [25],3
CC(=O)CC(c1ccccc1)c1c(O)c2ccccc2oc1=O (centres unmarked) [warfarin],Partition Hybrid HRM Score,[3],+VE
same,Ro2 Hybrid HRM Score,[3],-VE
same,Cluster 1-6 +VE Assay,[8],-VE
same,Structural based (HCI),[13],-VE
same,Bayesian Machine Learning,[9],+VE
same,Cellular toxicity (3T3 cells),[10],-VE
same,Combined Assay,[10],-VE
same,GSH adduct HML,[10],-VE
same,Hepatocyte cellular toxicity,[10],-VE
same,MitoTox 3T3,[10],-VE
same,TDI CYP3A4,[10],-VE
same,hBSEP inhibition,[10],-VE
